We go through six compounds from patent US20240398762A1, “PHARMACEUTICAL COMPOSITION WITH ANALGESIC AND/OR ANTIPRURITIC FUNCTIONS AND APPLICATION THEREOF” (PENGEKIPHEN BIOTECH LIMITED COMPANY, priority 2022, published 2024).

Structures are written as SMILES. Counter-ions that a name gives are not always drawn.

Assay [1] has as its system miR-96−/− mice. Kind of assay: Mechanical pain threshold (Von Frey paw withdrawal threshold) of hind paws after intragastric administration. In kind it is in vivo, mouse. As to conditions: 1 h after administration; for dose group exhibiting the best analgesic effect: three doses tested. The protocol:
In order to screen an analgesic drug with excellent oral efficacy, analgesic effects of intragastric administration of Nav1.7 inhibitor and Nav1.8 inhibitor in eight 3-6-month-old miR-96^−/− mice ([…] BIOTECH LIMITED COMPANY) were tested.
Firstly, mechanical pain thresholds of hind paws of the miR-96^−/− mice were measured. The eight miR-96^−/− mice were placed on an iron frame and covered with a plexiglass cover. After 30 min, paw withdrawal thresholds (PWT) of the mice were measured using Von Frey (DanMic Global, CA, USA). […] 1 h after the intragastric administration of 30 μg/kg, 60 μg/kg or 90 μg/kg of PF-06305591, the mechanical pain thresholds of the hind paws of the miR-96″ mice were measured.

Assay [2] concerns subjects with painful diabetic peripheral neuropathy. As to conditions: McDonnell et al., Pain 2018; cited from earlier work.

With `NC(=O)[C@@H]1CC[C@H](c2ccc(OCc3ccccc3F)cc2)N1` [CNV1014802], the “analgesic effect versus solvent control group” value in assay [1] (20 mg/kg intragastric), in assay [1] (30 mg/kg intragastric) and in assay [1] (40 mg/kg intragastric) was “significant analgesic effects” throughout. Further, the “dose group exhibiting the best analgesic effect” value in assay [1] (intragastric) is 30 mg/kg.

In the case of `NCC1(CC(=O)O)CCCCC1` [Gabapentin], the “effect on mechanical pain thresholds” value in assay [1] (50 mg/kg intragastric) is “significantly improve the mechanical pain thresholds”.

On to `CC(C)(N)c1ncc(-c2ccc(OC(F)(F)F)cc2)[nH]1` [PF-04885614, 1-methyl-1-[4-(4-trifluoromethoxy-phenyl)-1H-imidazol-2-yl]-ethylamine], for which the “analgesic effect versus solvent control group” value in assay [1] (180 μg/kg intragastric) and in assay [1] (270 μg/kg intragastric) was “significantly better than that of the solvent control group” in each case. Further, the “dose group exhibiting the best analgesic effect” value in assay [1] (intragastric) was 0.18 mg/kg.

`Nc1n[nH]cc1-c1cc(Cl)ccc1Oc1cc(F)c(S(=O)(=O)Nc2cscn2)cc1Cl` [PF-05089771, 4-[2-(3-amino-1H-pyrazol-4-yl)-4-chlorophenoxy]-5-chloro-2-fluoro-N-4-thiazolylbenzenesulfonamide tosylate]: the “analgesic effect in clinical studies” value in assay [2] is given as “does not exhibit desired analgesic effect”. Also, the “analgesic effect versus solvent control group” value in assay [1] (4 mg/kg intragastric) and in assay [1] (6 mg/kg intragastric) was “significantly better than that of the solvent control group” throughout. In addition, in assay [1] (intragastric), the “efficacy of the 6 mg/kg-dose group compared with the 4 mg/kg-dose group” value is “not better than that of the 4 mg/kg-dose group”.

`C[C@@H](C(N)=O)[C@H](N)c1nc2cc(C(C)(C)C)ccc2[nH]1` [PF-06305591, (αR, βS)-β-Amino-6-(1,1-dimethylethyl)-α-methyl-1H-benzimidazole-2-propanamide dihydrate]: the “analgesic effect versus solvent control group” value in assay [1] (60 μg/kg intragastric) and in assay [1] (90 μg/kg intragastric) was “significantly better than that of the solvent control group” in each case. Also, in assay [1] (intragastric), the “dose group exhibiting the best analgesic effect” value is 0.06 mg/kg.

As for `N#Cc1cc(S(=O)(=O)Nc2ncns2)ccc1Oc1ccc(-c2cccc(C(F)(F)F)c2)cc1-c1ccnc(CNCCC2CCNCC2)c1` [PF-06456384, 3-cyano-4-[[3-[2-[[[2-(4-piperidinyl)ethyl]amino]methyl]-4-pyridinyl]-3′-(trifluoromethyl)[1,1′-biphenyl]-4-yl]oxy]-N-1,2,4-thiadiazol-5-yl-benzenesulfonamide trihydrochloride], the “analgesic effect versus solvent control group” value in assay [1] (1 mg/kg intragastric), in assay [1] (2 mg/kg intragastric) and in assay [1] (3 mg/kg intragastric) was “significant analgesic effects” each time. Further, the “dose group exhibiting the best analgesic effect” value in assay [1] (intragastric) was found to be 2 mg/kg.
